Measured values taken from the supplement of paper PMC11061612.

Key:
Assay in all cases: combination Emax (second highest fraction inhibited in the dose matrix, 72 h); higher = more inhibition; extreme values may be limits of the assay
[1] = tested on: COR-L23 (Non-Small Cell Lung Carcinoma)
How it was run: (§1)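 Cell lines grown in DMEM/F12 or RPMI with 10% FBS were plated in 1536-well plates and held 24 hours at 37°C, 5% CO2 before 72 hours of exposure to two-drug dose matrices, with DMSO typically at 0.2%. CellTiter-Glo 2.0 luminescence gave viability, which was converted to inhibition. Vehicle wells were set to 0 and blank wells to 1. Combination Emax is the second-highest inhibition in the matrix, and Bliss excess is the observed combination effect minus the expected EA + EB − EA·EB, where EA and EB are the single-agent effects.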

[2] = tested on: CTV-1 (T-Lymphoblastic Leukemia)
How it was run: as §1

[3] = tested on: DMS-273 (Small Cell Lung Carcinoma)
How it was run: as §1

[4] = tested on: DOV13 (Ovarian Carcinoma)
How it was run: as §1

[5] = tested on: ES7 (Ewing's Sarcoma)
How it was run: as §1

[6] = tested on: G-292-Clone-A141B1 (Osteosarcoma)
How it was run: as §1

[7] = tested on: KM-H2 (Hodgkin's Lymphoma)
How it was run: as §1

[8] = tested on: LS-513 (Colorectal Carcinoma)
How it was run: as §1

[9] = tested on: MDA-MB-157 (Breast Carcinoma)
How it was run: as §1

[10] = tested on: MDA-MB-231 (Breast Carcinoma)
How it was run: as §1

[11] = tested on: MFH-ino (Other Solid Carcinomas)
How it was run: as §1

[12] = tested on: NALM-6 (B-Lymphoblastic Leukemia)
How it was run: as §1

[13] = tested on: NCI-H1781 (Lung Adenocarcinoma)
How it was run: as §1

[14] = tested on: NCI-H1793 (Lung Adenocarcinoma)
How it was run: as §1

[15] = tested on: NCI-H2369 (Mesothelioma)
How it was run: as §1

[16] = tested on: NCI-H2595 (Mesothelioma)
How it was run: as §1

[17] = tested on: OCI-AML2 (Acute Myeloid Leukemia)
How it was run: as §1

[18] = tested on: SW1990 (Pancreatic Carcinoma)
How it was run: as §1

[19] = tested on: SW780 (Bladder Carcinoma)
How it was run: as §1

[20] = tested on: TE-5 (Esophageal Squamous Cell Carcinoma)
How it was run: as §1

SMILES	combination Emax [1]	combination Emax [2]	combination Emax [3]	combination Emax [4]	combination Emax [5]	combination Emax [6]	combination Emax [7]	combination Emax [8]	combination Emax [9]	combination Emax [10]	combination Emax [11]	combination Emax [12]	combination Emax [13]	combination Emax [14]	combination Emax [15]	combination Emax [16]	combination Emax [17]	combination Emax [18]	combination Emax [19]	combination Emax [20]
CS(=O)(=O)CCNCc1ccc(-c2ccc3ncnc(Nc4ccc(OCc5cccc(F)c5)c(Cl)c4)c3c2)o1 [Lapatinib] + C[C@@H](Oc1cc(-c2cnn(C3CCNCC3)c2)cnc1N)c1c(Cl)ccc(F)c1Cl [Crizotinib] (first compound max 10 µM, 7x7, partner max 10 µM)	0.949	1	0.954	0.886	0.927	0.71	0.931	0.966	0.493	0.828	0.25	0.959	0.774	0.793	0.254	0.458	0.915	0.331	0.489	0.502
Cc1c2c(nn1C)CSCc1cc(n(C)n1)CSc1cc(c3ccccc3c1)OCCCc1c(C(=O)O)n(C)c3c-2c(Cl)ccc13 [AZD5991] + CC1(C)CCC(CN2CCN(c3ccc(C(=O)NS(=O)(=O)c4ccc(NCC5CCOCC5)c([N+](=O)[O-])c4)c(Oc4cnc5[nH]ccc5c4)c3)CC2)=C(c2ccc(Cl)cc2)C1 [Venetoclax] (first compound max 1 µM, 7x7, partner max 1 µM)	0.164	0.13	0.964	0.221	0.893	0.184	0.312	0.18	0.862	0.216	0.182	0.949	0.432	0.174	0.147	0.267	1	0.164	0.386	0.525
CCN(CCO)CCCOc1ccc2c(Nc3cc(CC(=O)Nc4cccc(F)c4)[nH]n3)ncnc2c1 [AZD2811] + C=CCn1c(=O)c2cnc(Nc3ccc(N4CCN(C)CC4)cc3)nc2n1-c1cccc(C(C)(C)O)n1 [AZD1775] (first compound max 1 µM, partner max 1 µM)	0.349	0.969	0.827	0.823	0.783	0.152	0.938	0.703	0.729	0.394	0.183	0.915	0.819	0.359	0.151	0.0802	0.991	0.458	0.186	0.313
COc1nnc2ccc(N3CCC(c4ccc(OCCN5CCN(C)C(=O)[C@H]5C)cc4)CC3)nn12 [AZD5153] + CCN(CCO)CCCOc1ccc2c(Nc3cc(CC(=O)Nc4cccc(F)c4)[nH]n3)ncnc2c1 [AZD2811] (first compound max 1 µM, 7x7, partner max 1 µM)	0.354	0.974	0.901	0.676	0.884	0.366	0.351	0.602	0.54	0.65	0.553	0.938	0.517	0.278	0.344	0.465	1	0.118	0.339	0.434
COc1cccc(OCCCN)c1-c1cc(Nc2cnc(C#N)cn2)n[nH]1 [Prexasertib] + C[C@@H]1COCCN1C2=NC(=NC(=C2)C3(CC3)[S@](=N)(=O)C)C4=C5C=CNC5=NC=C4 [AZD6738] (first compound max 1 µM, 7x7, partner max 10 µM)	0.685	0.948	0.916	0.945	0.855	0.325	0.92	0.8	0.949	0.705	0.572	0.943	0.486	0.423	0.192	0.141	1	0.695	0.201	0.548
CC1(C)CCC(CN2CCN(c3ccc(C(=O)NS(=O)(=O)c4ccc(NCC5CCOCC5)c([N+](=O)[O-])c4)c(Oc4cnc5[nH]ccc5c4)c3)CC2)=C(c2ccc(Cl)cc2)C1 [Venetoclax] + Cc1cc2ncnn2cc1Nc1ncc2c(n1)n(C1CCOCC1)c(=O)n2C [AZD7648] (first compound max 1 µM, 7x7, partner max 10 µM)	0.164	0.362	0.482	0.476	0.714	0.221	0.161	0.192	0.571	0.356	0.318	0.789	0.329	0.41	0.164	0.228	1	0.572	0.163	0.284
CN(C)CCCOc1ccc(-c2ccc3ncc4c(c3c2)n(C2CCOCC2)c(=O)n4C)cn1 [AZD0156] + C[C@@H]1COCCN1C2=NC(=NC(=C2)C3(CC3)[S@](=N)(=O)C)C4=C5C=CNC5=NC=C4 [AZD6738] (first compound max 1 µM, 7x7, partner max 10 µM)	0.687	0.829	0.834	0.888	0.846	0.263	0.821	0.822	0.914	0.736	0.403	0.903	0.346	0.455	0.187	0.12	0.975	0.552	0.138	0.481
COc1cc2ncnc(Nc3ccc(F)c(Cl)c3)c2cc1OCCCN1CCOCC1 [Gefitinib] + CC(C)n1c(=O)n(C)c2cnc3cc(F)c(-c4ccc(OCCCN5CCCCC5)nc4)cc3c21 [AZD1390] (first compound max 10 µM, 7x7, partner max 0.3 µM)	0.0639	0.785	0.325	0.168	0.385	0.0339	0.19	0.354	0.125	0.193	0	0.176	0.538	0.143	0.0747	0.129	0.083	0.213	0.14	0.15
COc1cccc2c1C(=O)c1c(O)c3c(c(O)c1C2=O)C[C@@](O)(C(=O)CO)C[C@@H]3O[C@H]1C[C@H](N)[C@H](O)[C@H](C)O1 [Doxorubicin] + Cc1cc2ncnn2cc1Nc1ncc2c(n1)n(C1CCOCC1)c(=O)n2C [AZD7648] (first compound max 1 µM, 7x7, partner max 10 µM)	0.432	1	0.866	0.914	1	0.247	0.791	0.617	0.805	0.786	0.608	1	0.932	0.378	0.883	0.531	1	0.303	0.235	0.678
CN(CCO)CC[C@H](CSc1ccccc1)Nc1ccc(S(=O)(=O)NC(=O)c2ccc(N3CCC([C@@H](O)c4ccccc4-c4ccc(Cl)cc4)CC3)cc2)cc1S(=O)(=O)C(F)(F)F [AZD4320] + Cc1cc2ncnn2cc1Nc1ncc2c(n1)n(C1CCOCC1)c(=O)n2C [AZD7648] (first compound max 1 µM, 7x7, partner max 10 µM)	0.0958	0.315	0.398	0.779	0.804	0.624	0.0312	0.155	0.0975	0.637	0.161	0.975	0.258	0.356	0.0705	0.12	1	0.0867	0.484	0.531
Cc1c2c(nn1C)CSCc1cc(n(C)n1)CSc1cc(c3ccccc3c1)OCCCc1c(C(=O)O)n(C)c3c-2c(Cl)ccc13 [AZD5991] + C[C@@H](Nc1cc(F)cc(F)c1)c1cc(C(=O)N(C)C)cc2c(=O)cc(N3CCOCC3)oc12 [AZD8186] (first compound max 1 µM, 7x7, partner max 3 µM)	0.104	0.143	0.956	0.381	0.95	0.415	0.11	0.255	0.876	0.23	0.234	0.672	0.584	0.263	0.24	0.336	0.946	0.21	0.228	0.191
Cn1cnc2c(F)c(Nc3ccc(Br)cc3Cl)c(C(=O)NOCCO)cc21 [Selumetinib] + CC(C)n1c(=O)n(C)c2cnc3cc(F)c(-c4ccc(OCCCN5CCCCC5)nc4)cc3c21 [AZD1390] (first compound max 10 µM, 7x7, partner max 0.3 µM)	0.268	0.331	0.232	0.124	0.14	0.0339	0.153	0.858	0.131	0.501	0.281	0.205	0.218	0.218	0.129	0.191	0.993	0.202	0.381	0.137
